# Measurements taken from patent US5399487A, “6-peptidylamino-1-naphthalenesulfonamides useful as fluorogenic proteolytic enzyme substrates” (Haematologic Technologies, Inc., priority 1993, dated 1995).
# Experiments:
# Assay type in all cases: biochemical
# factor VIIa = target: T1, factor VIIa (Homo sapiens, UniProt P08709); test: Fluorogenic enzyme assay, relative hydrolysis rates (Table 8); details: 10 nM enzyme, substrate 1 μM
# T1 construct: directly measure the enzymatic activity of factor VIIa in the presence and absence of tissue factor and phospholipid
# T1 sequence (P08709 213-466 limits assumed): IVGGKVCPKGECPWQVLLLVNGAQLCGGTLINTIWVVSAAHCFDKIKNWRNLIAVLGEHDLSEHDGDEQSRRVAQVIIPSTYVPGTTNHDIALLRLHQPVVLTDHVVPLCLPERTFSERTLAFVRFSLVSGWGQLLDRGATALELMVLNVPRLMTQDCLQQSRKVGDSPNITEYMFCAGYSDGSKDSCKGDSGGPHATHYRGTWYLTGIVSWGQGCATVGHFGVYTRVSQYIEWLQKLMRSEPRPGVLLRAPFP
# T1 sequence (P08709 61-212 limits assumed): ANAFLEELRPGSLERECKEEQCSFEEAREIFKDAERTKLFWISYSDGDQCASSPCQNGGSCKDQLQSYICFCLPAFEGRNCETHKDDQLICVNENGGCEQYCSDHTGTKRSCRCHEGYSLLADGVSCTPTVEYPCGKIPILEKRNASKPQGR
# VIIa/TF/PC/CA^2+ = target: T2, VIIa/TF/PC/CA^2+ (Homo sapiens, UniProt P08709); test: Fluorogenic factor VIIa assay (Example 6); details: HBS, 37° C., 0.5 nM rVIIa
# T2 construct: directly measure the enzymatic activity of factor VIIa in the presence and absence of tissue factor and phospholipid
# T2 sequence (P13726 33-295 partner, one chain of several): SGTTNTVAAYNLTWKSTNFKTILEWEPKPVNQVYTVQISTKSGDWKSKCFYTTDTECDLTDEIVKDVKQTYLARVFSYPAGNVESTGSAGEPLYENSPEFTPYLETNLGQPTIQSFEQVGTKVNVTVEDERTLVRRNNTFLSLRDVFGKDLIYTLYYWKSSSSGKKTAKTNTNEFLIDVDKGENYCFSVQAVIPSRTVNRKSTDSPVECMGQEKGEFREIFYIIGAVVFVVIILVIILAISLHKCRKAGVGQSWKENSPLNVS
# Method: (§1) Factor VII assays were conducted in 20 mM HEPES, 150 mM NaCl, 5 mM CaCl2, pH 7.4 (HBS) at 37° C. The final volume for all reactions was 1.6 ml. 6-(Mes-D-Leu-Gly-Arg)amino-1-(N,N-diethyl)naphthalenesulfonamide was dissolved in DMSO to a stock concentration of 10 mM. This 10 mM stock solution of was diluted in HBS to final working concentration prior to all assays. For reactions involving tissue factor (TF) and phospholipid vesicles, recombinant human tissue factor was solubilized in either 0.04% n-dodecyl octaethylene glycol (C12 E8) or 0.8% octyl glucoside. The TF/n-dodecyl octaethylene glycol was then relipidated into PCPS or PC vesicles by a 30 minute incubation step as described by Lawson & Mann, J. Biol. Chem. 266: 11317-11327 (1991). TF/octyl glucoside was relipidated into PC or PCPS vesicles by a thirty minute incubation step followed by exhaustive dialysis. The final concentration of tissue factor used in the studies described here ranged from 2 to 50 nM depending on the nature of the experiment.
# (§2) Fifteen minutes prior to the start of all reactions factor VIIa was added to the reaction system. This incubation period was followed by the addition of substrate (1 μM to 400 μM) to the mixture to start the reaction. In experiments designed to determine kinetic constants of substrate hydrolysis, 50 nM rVIIa was used when no tissue factor was present in the reaction system, while 0.5 nM rVIIa was used when tissue factor was present in the reaction system. The rate of substrate hydrolysis was measured by change in fluorescence over time, which corresponded with the generation of the 6-amino-1-(N,N-diethyl)naphthalenesulfonamide from the provided substrate. The kinetic constants of 6-(Mes-D-Leu-Gly-Arg)amino-1-(N,N-diethyl)naphthalenesulfonamide hydrolysis as a function of factor VIIa/tissue factor complex assembly are shown in Table 10.
# VIIa/PCPS/Ca^2+ = target: T3, VIIa/PCPS/Ca^2+ (Homo sapiens, UniProt P08709); test: Fluorogenic factor VIIa assay (Example 6); details: HBS, 37° C., 50 nM rVIIa
# T3 construct: directly measure the enzymatic activity of factor VIIa in the presence and absence of tissue factor and phospholipid
# T3 sequence (P08709 213-466 limits assumed): T1 sequence (P08709 213-466 limits assumed)
# T3 sequence (P08709 61-212 limits assumed): T1 sequence (P08709 61-212 limits assumed)
# Method: as §1, §2
# VIIa/TF/PCPS/Ca^2+ = target: T4, VIIa/TF/PCPS/Ca^2+ (Homo sapiens, UniProt P08709); test: Fluorogenic factor VIIa assay (Example 6); details: HBS, 37° C., 0.5 nM rVIIa
# T4 construct: directly measure the enzymatic activity of factor VIIa in the presence and absence of tissue factor and phospholipid
# T4 sequence (P13726 33-295 partner, one chain of several): as above
# Method: as §1, §2
# VIIa/Ca^2+ = target: T5, VIIa/Ca^2+ (Homo sapiens, UniProt P08709); test: Fluorogenic factor VIIa assay (Example 6); details: HBS, 37° C., 50 nM rVIIa
# T5 construct: directly measure the enzymatic activity of factor VIIa in the presence and absence of tissue factor and phospholipid
# T5 sequence (P08709 213-466 limits assumed): T1 sequence (P08709 213-466 limits assumed)
# T5 sequence (P08709 61-212 limits assumed): T1 sequence (P08709 61-212 limits assumed)
# Method: as §1, §2
compound,measurement,setting,value
"CCN(CC)S(=O)(=O)c1cccc2cc(NC(=O)[C@H](CCCNC(=N)N)NC(=O)CNC(=O)[C@@H](CC(C)C)NS(C)(=O)=O)ccc12 [MesD-LPR-ANSN(C2 H5)2, 6-(Mes-D-Leu-Gly-Arg)amino-1-(N,N-diethyl)napththalenesulfonamide]","TIME TO 10% HYDROLYSIS (HOURS), VIIa",factor VIIa,4 h
same,kcat /Km,VIIa/TF/PC/CA^2+,4206 M^-1 S^-1
same,kcat sec^-1 ± S.E.,VIIa/TF/PC/CA^2+,0.875 ± 0.032 s⁻¹
same,Km,VIIa/TF/PC/CA^2+; read-out: Km μM ± S.E.,208 ± 12 µM
same,kcat /Km,VIIa/PCPS/Ca^2+,32.6 M^-1 S^-1
same,kcat sec^-1 ± S.E.,VIIa/PCPS/Ca^2+,0.019 ± 0.003 s⁻¹
same,Km,VIIa/PCPS/Ca^2+; read-out: Km μM ± S.E.,580 ± 101 µM
same,kcat /Km,VIIa/TF/PCPS/Ca^2+,4166 M^-1 S^-1
same,kcat sec^-1 ± S.E.,VIIa/TF/PCPS/Ca^2+,0.675 ± 0.046 s⁻¹
same,Km,VIIa/TF/PCPS/Ca^2+; read-out: Km μM ± S.E.,162 ± 16 µM
same,kcat /Km,VIIa/Ca^2+,41.4 M^-1 S^-1
same,kcat sec^-1 ± S.E.,VIIa/Ca^2+,0.010 ± 0.002 s⁻¹
same,Km,VIIa/Ca^2+; read-out: Km μM ± S.E.,249 ± 88.5 µM
